Earlier results as cited in US20240066015A1, “TREATMENT OF PAIN ASSOCIATED WITH PARKINSON'S DISEASE” (BIAL-PORTELA & CA., S.A., priority 2021, published 2024).

Legend:
[1] = in comparison with placebo, added to levodopa-based therapy
[2] = oral administration, peripheral metabolism by DDC and COMT
[3] = hot plate test
[4] = patients with PD and end-of-dose motor fluctuations
[5] = transdermal patch, patients with advanced-stage PD; trial not powered for statistical significance
[6] = BIPARK-II trial and OPTIPARK study

In the case of `C[C@H](NCc1ccc(OCc2cccc(F)c2)cc1)C(N)=O` [Safinamide], the PDQ-39 pain-related items [1] is listed as “significantly improve two out of three” and the “need for pain medication” value [1] is listed as “significantly reduce”.

In the case of `N[C@@H](Cc1ccc(O)c(O)c1)C(=O)O` [levodopa], the “share of an oral dose that reaches the brain” value [2] is given as 1%.

For `CC(=O)C(=Cc1cc(O)c(O)c([N+](=O)[O-])c1)C(C)=O` [nitecapone], the “mediation of the analgesic effect” value [3] is listed as “not mediated through the CNS”.

In the case of `Cc1c(Cl)c(C)[n+]([O-])c(Cl)c1-c1noc(-c2cc(O)c(O)c([N+](=O)[O-])c2)n1` [opicapone], the OFF-time [4] is given as “efficacious in reducing OFF-time”, the tolerability [4] is given as “generally well tolerated” and the “NMSS "Miscellaneous" domain effect compared with placebo” value (BIPARK-II trial) is given as “less than for that observed for placebo”. For the same compound, the “NMSS "Miscellaneous" domain (includes pain as one aspect)” value [6] was “positive signal” and the “specific effect on pain” value [6] was “no specific effect on pain was identifiable”.

For `CCCN(CCc1cccs1)[C@H]1CCc2c(O)cccc2C1` [rotigotine], the PD-associated chronic pain [5] is listed as “may improve”.
